Source: patent US9969738B2, “N-acyl-(3-substituted)-5,6,7,8-tetrahydro-[1,2,4]triazolo[4,3-a]pyrazines as selective NK-3 receptor antagonists, pharmaceutical composition, methods for use in NK-3 receptor-mediated disorders” (EUROSCREEN SA, priority 2013, dated 2018)

Key:
human NK-3 receptor [1] = biological target: T1, human NK-3 receptor (Homo sapiens (Human), UniProt P29371); assay: Aequorin functional assay with human NK-3 receptor (antagonist testing); format: cell-based; details: CHO cells expressing human NK-3 receptor and apoaequorin; agonist NKA at EC80 (3 nM); read-out: hNK-3 - AEQ (antagonist IC50)
T1 sequence (P29371 whole entry): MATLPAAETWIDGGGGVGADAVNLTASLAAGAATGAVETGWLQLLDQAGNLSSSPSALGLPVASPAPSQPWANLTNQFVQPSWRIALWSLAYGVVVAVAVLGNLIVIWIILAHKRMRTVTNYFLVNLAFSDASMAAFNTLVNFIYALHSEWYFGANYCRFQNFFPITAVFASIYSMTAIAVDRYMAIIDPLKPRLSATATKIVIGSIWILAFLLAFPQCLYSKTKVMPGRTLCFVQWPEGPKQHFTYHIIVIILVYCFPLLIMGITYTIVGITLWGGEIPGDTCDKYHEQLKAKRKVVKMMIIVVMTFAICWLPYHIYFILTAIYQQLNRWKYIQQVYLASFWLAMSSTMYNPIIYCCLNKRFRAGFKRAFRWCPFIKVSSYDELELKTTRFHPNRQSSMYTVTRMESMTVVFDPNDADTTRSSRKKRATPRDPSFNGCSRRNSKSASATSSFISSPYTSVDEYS
Method: Aequorin Assay with Human NK-3 Receptor
Changes in intracellular calcium levels are a recognized indicator of G protein-coupled receptor activity. The efficacy of compounds of the invention to inhibit NKA-mediated NK-3 receptor activation was assessed by an in vitro Aequorin functional assay. Chinese Hamster Ovary recombinant cells expressing the human NK-3 receptor and a construct that encodes the photoproteinapoaequorin were used for this assay. In the presence of the cofactor coelenterazine, apoaequorin emits a measurable luminescence that is proportional to the amount of intracellular (cytoplasmic) free calcium.
The antagonist activity of compounds of the invention is measured following pre-incubation (3 minutes) of the compound (at various concentrations) with the cells, followed by addition of the reference agonist (NKA) at a final concentration equivalent to the EC80 (3 nM) and recording of emitted light (FDSS 6000 Hamamatsu) over the subsequent 90-second period. The intensity of the emitted light is integrated using the reader software. Compound antagonist activity is measured based on the concentration-dependent inhibition of the luminescence response to the addition of Neurokinin A.
The IC50 values shown in table 2 indicate that compounds of the invention are potent NK-3 antagonist compounds.

human NK-3 receptor [2] = biological target: T1, human NK-3 receptor; assay: 3H-SB222200 binding competition assay with human NK-3 receptor; details: CHO cell membranes, 5 nM 3H-SB222200; Ki by Cheng-Prusoff; read-out: hNK-3 (Ki)
Method: The affinity of compounds of the invention for the human NK-3 receptor was determined by measuring the ability of compounds of the invention to competitively and reversibly displace a well-characterized NK-3 radioligand in a concentration-dependent manner.
^3H-SB222200 Binding Competition Assay with Human NK-3 Receptor
The ability of compounds of the invention to inhibit the binding of the NK-3 receptor selective antagonist ^3H-SB222200 was assessed by an in vitro radioligand binding assay. Membranes were prepared from Chinese hamster ovary recombinant cells stably expressing the human NK-3 receptor. The membranes were incubated with 5 nM ^3H-SB222200 (ARC) in a HEPES 25 mM/NaCl 0.1M/CaCl2 1 mM/MgCl2 5 mM/BSA 0.5%/Saponin 10 μg/ml buffer at pH 7.4 and various concentrations of compounds of the invention. The amount of ^3H-SB222200 bound to the receptor was determined after filtration by the quantification of membrane associated radioactivity using the TopCount-NXT reader (Packard).

human NK-1 receptor = human NK-1 receptor (Homo sapiens (Human), UniProt P25103); assay: Selectivity assay: [3H] substance P binding to human NK-1 receptor; details: CHO cell membranes, 2 nM [3H] substance P; read-out: hNK-1 (Ki)
human NK-1 receptor, sequence (P25103 whole entry): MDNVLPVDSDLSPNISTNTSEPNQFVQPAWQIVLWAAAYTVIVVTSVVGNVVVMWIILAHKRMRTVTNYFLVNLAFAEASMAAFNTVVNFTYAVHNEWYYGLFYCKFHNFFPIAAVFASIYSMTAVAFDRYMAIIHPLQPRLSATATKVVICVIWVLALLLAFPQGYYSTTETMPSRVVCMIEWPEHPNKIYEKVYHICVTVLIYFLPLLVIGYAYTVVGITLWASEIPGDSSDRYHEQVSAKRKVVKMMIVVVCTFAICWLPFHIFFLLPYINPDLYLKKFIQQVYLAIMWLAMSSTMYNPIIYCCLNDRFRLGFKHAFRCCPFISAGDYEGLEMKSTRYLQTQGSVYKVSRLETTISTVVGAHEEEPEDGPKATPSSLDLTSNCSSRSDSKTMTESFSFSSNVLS
Method: (§1) Selectivity of the compounds of the invention was determined over the other human NK receptors, namely NK-1 and NK-2 receptors.
The affinity of compounds of the invention for the NK-1 receptor was evaluated in CHO recombinant cells which express the human NK-1 receptor. Membrane suspensions were prepared from these cells. The following radioligand: [^3H] substance P (PerkinElmer Cat#NET111520) was used in this assay. Binding assays were performed in a 50 mM Tris/5 mM MnCl2/150 mM NaCl/0.1% BSA at pH 7.4. Binding assays consisted of 25 μl of membrane suspension (approximately 5 μg of protein/well in a 96 well plate), 50 μl of compound or reference ligand (Substance P) at increasing concentrations (diluted in assay buffer) and 2 nM [^3H] substance P. The plate was incubated 60 min at 25° C. in a water bath and then filtered over GF/C filters (Perkin Elmer, 6005174, presoaked in 0.5% PEI for 2 h at room temperature) with a Filtration unit (Perkin Elmer). The radioactivity retained on the filters was measured by using the TopCount-NXT reader (Packard).

human NK-2 receptor = human NK-2 receptor (Homo sapiens (Human), UniProt P21452); assay: Selectivity assay: [125I]-Neurokinin A binding to human NK-2 receptor; details: CHO cell membranes, 0.1 nM [125I]-Neurokinin A; read-out: hNK-2 (Ki)
human NK-2 receptor, sequence (P21452 whole entry): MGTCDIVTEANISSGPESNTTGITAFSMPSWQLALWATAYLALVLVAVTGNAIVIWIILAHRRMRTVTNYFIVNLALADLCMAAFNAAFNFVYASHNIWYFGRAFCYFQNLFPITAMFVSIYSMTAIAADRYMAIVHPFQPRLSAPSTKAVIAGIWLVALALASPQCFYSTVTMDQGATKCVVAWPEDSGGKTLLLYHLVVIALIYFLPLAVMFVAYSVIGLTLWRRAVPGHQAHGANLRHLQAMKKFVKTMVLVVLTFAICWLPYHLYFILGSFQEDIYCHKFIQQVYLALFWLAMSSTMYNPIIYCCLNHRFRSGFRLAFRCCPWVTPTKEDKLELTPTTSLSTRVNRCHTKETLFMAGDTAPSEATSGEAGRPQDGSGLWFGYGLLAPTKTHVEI
Method: as §1
The affinity of compounds of the invention for the NK-2 receptor was evaluated in CHO recombinant cells which express the human NK-2 receptor. Membrane suspensions were prepared from these cells. The following radioligand [^125I]-Neurokinin A (PerkinElmer Cat#NEX252) was used in this assay. Binding assays were performed in a 25 mM HEPES/1 mM CaCl2/5 mM MgCl2/0.5% BSA/10 μg/ml saponin, at pH 7.4. Binding assays consisted of 25 μl of membrane suspension (approximately 3.75 μg of protein/well in a 96 well plate), 50 μl of compound or reference ligand (Neurokinin A) at increasing concentrations (diluted in assay buffer) and 0.1 nM [^125I]-Neurokinin A. The plate was incubated 60 min at 25° C. in a water bath and then filtered over GF/C filters (Perkin Elmer, 6005174, presoaked in assay buffer without saponine for 2 h at room temperature) with a Filtration unit (Perkin Elmer). The radioactivity retained on the filters was measured by using the TopCount-NXT reader (Packard).

circulating LH levels = assay: Castrated male rat model, circulating levels of luteinizing hormone (LH), oral dosing; format: in vivo; details: castrated male SD rats, single oral dose less than or equal to 30 mg/kg, p<0.05
Method: In Vivo Assay to Assess Compound Activity in Rat (Oral Dosing) The effect of compounds of the invention to inhibit luteinizing hormone (LH) secretion is determined by the following biological studies. Castrated Male Rat Model to Assess the Effect of Compound of Invention on Circulating Levels of Luteinizing Hormone (LH) In humans and rodents, castration is well-precedented to permit heightened, persistent GnRH signaling and consequent elevation of circulating LH. Thus, a castrated rat model is used to provide a broad index for measurement of LH inhibition as a marker of test compound inhibition of the GnRH signaling pathway. Castrated adult male Sprague-Dawley (SD) rats (150-175 g,) were purchased from Janvier (St Berthevin, France). All animals were housed 2 per cage in a temperature-controlled room (22±2° C.) and 50±5% relative humidity with a 12 hour/12 hour light/dark cycles (lights off at 6 h00 pm). The animals were allowed 3 weeks of postoperative recovery prior to study. Animals were handled on a daily basis. Standard diet and tap water were provided ad libitum. Animal cage litters were changed once a week. On the study day, animals were acclimated to the procedure room for a period of one hour prior to the initiation of the experiment. […] Serum LH levels were determined using radioimmunoas say kit from RIAZEN—Rat LH, Zentech (Liège, Belgium). […]

hERG channel = hERG channel (Homo sapiens (Human), UniProt Q12809); assay: hERG inhibition assay (manual patch-clamp, HEK 293 cells); format: cell-based; details: 5 minutes of exposure, read-out: CardioSafety (hERG IC50)
hERG channel, sequence (Q12809 whole entry): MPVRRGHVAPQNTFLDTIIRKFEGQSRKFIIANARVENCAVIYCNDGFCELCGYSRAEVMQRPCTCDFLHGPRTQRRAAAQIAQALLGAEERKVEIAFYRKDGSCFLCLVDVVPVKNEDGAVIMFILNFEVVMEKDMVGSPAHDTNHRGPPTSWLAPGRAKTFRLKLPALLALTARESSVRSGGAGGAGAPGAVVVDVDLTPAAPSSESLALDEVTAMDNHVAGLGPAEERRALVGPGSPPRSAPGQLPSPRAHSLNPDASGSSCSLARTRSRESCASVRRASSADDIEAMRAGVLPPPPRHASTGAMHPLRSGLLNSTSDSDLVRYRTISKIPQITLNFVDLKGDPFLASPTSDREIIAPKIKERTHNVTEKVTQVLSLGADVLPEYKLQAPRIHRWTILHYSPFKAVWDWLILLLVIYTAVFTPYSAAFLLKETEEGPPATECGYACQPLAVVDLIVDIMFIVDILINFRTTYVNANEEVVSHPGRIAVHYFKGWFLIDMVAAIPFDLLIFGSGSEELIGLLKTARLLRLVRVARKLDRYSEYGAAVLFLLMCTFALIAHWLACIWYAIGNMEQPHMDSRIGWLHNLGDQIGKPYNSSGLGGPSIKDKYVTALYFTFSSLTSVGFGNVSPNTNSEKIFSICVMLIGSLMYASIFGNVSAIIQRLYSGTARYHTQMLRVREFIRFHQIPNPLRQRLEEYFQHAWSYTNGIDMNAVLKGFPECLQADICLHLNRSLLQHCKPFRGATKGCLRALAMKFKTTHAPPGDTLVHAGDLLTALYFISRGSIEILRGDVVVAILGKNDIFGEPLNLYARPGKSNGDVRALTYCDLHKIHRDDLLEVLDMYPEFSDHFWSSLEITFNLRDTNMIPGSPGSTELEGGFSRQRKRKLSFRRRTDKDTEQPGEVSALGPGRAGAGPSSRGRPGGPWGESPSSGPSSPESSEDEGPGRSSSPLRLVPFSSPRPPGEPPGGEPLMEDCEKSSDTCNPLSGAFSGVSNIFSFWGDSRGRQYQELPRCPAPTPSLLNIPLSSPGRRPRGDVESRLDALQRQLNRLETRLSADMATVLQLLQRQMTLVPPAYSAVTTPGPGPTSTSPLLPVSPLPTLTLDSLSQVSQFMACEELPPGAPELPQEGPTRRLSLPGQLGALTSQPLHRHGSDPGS
Method: IKr current inhibition accounts for the vast majority of known cases of drug-induced QT-prolongation. […] Whole-cell currents (acquisition by manual patch-clamp) elicited during a voltage pulse were recorded in baseline conditions and following application of tested compounds (5 minutes of exposure). The concentrations of tested compounds (0.3 μM; 3 μM; 10 μM; 30 μM) reflect a range believed to exceed the concentrations at expected efficacy doses in preclinical models. […] The current density recorded were normalized against the baseline conditions and corrected for solvent effect and time-dependent current run-down using experimental design in test compound free conditions.

[3] = Determination of plasma protein binding (rapid equilibrium dialysis); format: in vitro ADME; details: bound drug fraction to plasma protein; equilibrium dialysis 4 hours at 37° C.
Text: Determination of Plasma Protein Binding
The pharmacokinetic and pharmacodynamic properties of chemicals/drugs are largely a function of the reversible binding of chemicals to plasma or serum proteins. […] Consequently, the extent of the plasma protein binding (PPB) of a compound influences its action as well as its distribution and elimination.
The determination of plasma protein binding (PPB) of a compound is enabled by equilibrium dialysis, an accepted and standard method for reliable estimation of the non-bound drug fraction in plasma. RED (Rapid Equilibrium Dialysis) device insert is made of two side-by-side chambers separated by an O-ring-sealed vertical cylinder of dialysis membrane (MWCO ˜8,000). […] After 4 hours incubation at 37° C. under shaking, an aliquot is removed from each chamber and analyzed by a LC-MS/MS procedure enables the determination of both free and bound drug.
The “free fraction” may be calculated as 100%−% rPPB (i.e. the complementary percentage of that disclosed in Table 4, corresponding to the drug concentration that is unbound and therefore available to engage biological target and elicit pharmacological activity).

SMILES	IC50 (human NK-3 receptor [1])	Ki (human NK-3 receptor [2])	Ki (human NK-1 receptor)	Ki (human NK-2 receptor)	suppression of circulating LH levels (circulating LH levels)	IC50 (hERG channel)	Exposure (% rPPB) [3]
Cc1nsc(-c2nnc3n2CCN(C(=O)c2ccc(F)cc2)C3)n1 [Compound 1, (4-fluorophenyl)(3-(3-methyl-1,2,4-thiadiazol-5-yl)-5,6-dihydro-[1,2,4]triazolo[4,3-a]pyrazin-7(8H)-yl)methanone]	180 nM	140 nM	> 30 µM	> 30 µM	significantly suppressed circulating LH levels	–	–
Cc1nsc(-c2nnc3n2CCN(C(=O)c2ccc(Cl)cc2)C3)n1 [Compound 2, (4-chlorophenyl)(3-(3-methyl-1,2,4-thiadiazol-5-yl)-5,6-dihydro-[1,2,4]triazol[4,3-a]pyrazin-7(8H)-yl)methanone]	140 nM	99 nM	> 30 µM	> 30 µM	–	35 µM	49%
Cc1nsc(-c2nnc3n2CCN(C(=O)c2ccc(Cl)c(F)c2)C3)n1 [Compound 3, (4-chloro-3-fluorophenyl)(3-(3-methyl-1,2,4-thiadiazol-5-yl)-5,6-dihydro-[1,2,4]triazol[4,3-a]pyrazin-7(8H)-yl)methanone]	140 nM	93 nM	> 30 µM	> 30 µM	–	–	54%
Cc1nsc(-c2nnc3n2CCN(C(=O)c2ccc(F)c(Cl)c2)C3)n1 [Compound 4, (3-chloro-4-fluorophenyl)(3-(3-methyl-1,2,4-thiadiazol-5-yl)-5,6-dihydro-[1,2,4]triazol[4,3-a]pyrazin-7(8H)-yl)methanone]	200 nM	130 nM	> 30 µM	> 30 µM	–	–	52%
Cc1nsc(-c2nnc3n2CCN(C(=O)c2ccc(F)c(F)c2)C3)n1 [Compound 5, (3,4-difluorophenyl)(3-(3-methyl-1,2,4-thiadiazol-5-yl)-5,6-dihydro-[1,2,4]triazol[4,3-a]pyrazin-7(8H)-yl)methanone]	250 nM	170 nM	> 30 µM	> 30 µM	–	–	28%
Cc1nsc(-c2nnc3n2CCN(C(=O)c2cc(F)c(F)c(F)c2)C3)n1 [Compound 6, (3-(3-methyl-1,2,4-thiadiazol-5-yl)-5,6-dihydro-[1,2,4]triazolo[4,3-a]pyrazin-7(8H)-yl)(3,4,5-trifluorophenyl)methanone]	330 nM	170 nM	> 30 µM	> 30 µM	–	–	27%
Cc1nsc(-c2nnc3n2CCN(C(=O)c2ccc(F)c(F)c2F)C3)n1 [Compound 7, (3-(3-methyl-1,2,4-thiadiazol-5-yl)-5,6-dihydro-[1,2,4]triazolo[4,3-a]pyrazin-7(8H)-yl)(2,3,4-trifluorophenyl)methanone]	470 nM	240 nM	> 30 µM	> 30 µM	–	–	25%
